Experimental data as given in publication doi:10.1101/705327v1 (biorxiv, 2019).

Columns and labels:
Format in all cases: biochemical
recombinant mouse Acot13 [1] = molecular target: T1, recombinant mouse Acot13 (Mus musculus, UniProt Q9CQR4); assay: thioesterase activity assay; details: read-out: % inhibition at 10 mM
T1 sequence (Q9CQR4 1-140): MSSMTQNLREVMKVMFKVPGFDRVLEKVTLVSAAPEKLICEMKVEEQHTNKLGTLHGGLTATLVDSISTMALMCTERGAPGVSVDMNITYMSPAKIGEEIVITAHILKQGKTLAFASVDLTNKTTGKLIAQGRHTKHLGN

Acot2 = molecular target: T2, Acot2 (Mus musculus, UniProt Q9QYR9); assay: thioesterase activity in liver mitochondria overexpressing Acot2; details: read-out: % inhibition at 10 mM
T2 sequence (Q9QYR9 43-453): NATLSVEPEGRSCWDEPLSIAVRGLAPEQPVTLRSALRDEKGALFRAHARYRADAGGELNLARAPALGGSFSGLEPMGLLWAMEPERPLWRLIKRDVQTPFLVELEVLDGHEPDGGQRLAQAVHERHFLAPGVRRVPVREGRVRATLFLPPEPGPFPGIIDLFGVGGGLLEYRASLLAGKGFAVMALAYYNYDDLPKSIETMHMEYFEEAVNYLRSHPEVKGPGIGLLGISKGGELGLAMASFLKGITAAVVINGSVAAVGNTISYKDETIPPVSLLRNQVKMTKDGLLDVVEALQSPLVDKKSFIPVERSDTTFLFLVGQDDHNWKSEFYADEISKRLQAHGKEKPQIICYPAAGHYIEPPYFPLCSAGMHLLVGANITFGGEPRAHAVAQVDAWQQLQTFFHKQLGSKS

recombinant mouse Acot13 [2] = molecular target: T1, recombinant mouse Acot13; assay: thioesterase activity assay

Row | inhibition at 10000 µM (recombinant mouse Acot13 [1]) [%] | inhibition at 10000 µM (Acot2) [%] | IC50 (recombinant mouse Acot13 [2]) [µM] | Compound
1 | ~20 | ~20 | – | Nc1ncnc2c1ncn2[C@@H]1O[C@H](COP(=O)(O)OP(=O)(O)OP(=O)(O)O)[C@@H](O)[C@H]1O [ATP]
2 | ~20 | ~20 | – | Nc1ncnc2c1ncn2[C@@H]1O[C@H](COP(=O)(O)OP(=O)(O)O)[C@@H](O)[C@H]1O [ADP]
3 | – | – | ~35 | CC(C)(COP(=O)(O)OP(=O)(O)OC[C@H]1O[C@@H](n2cnc3c(N)ncnc32)[C@H](O)[C@@H]1OP(=O)(O)O)[C@@H](O)C(=O)NCCC(=O)NCCS [CoA]
